In ChEMBL document CHEMBL1240532, “Spiroindolones, a potent compound class for the treatment of malaria” (Science, 2010):
Active and inactive are the calls of the source. The rule behind the calls is not given here.

Legend:
[1] = system: Plasmodium vivax; assay: Antimalarial activity against Plasmodium vivax isolates after 42 hrs; assay type: functional, organism-based
[2] = system: Plasmodium falciparum; assay: Antimalarial activity against Plasmodium falciparum 3D7 after 48 hrs incubation by [3H]hypoxanthin incorporation assay
[3] = system: Plasmodium falciparum; assay: Antimalarial activity against chloroquine and pyrimethamine-resistant Plasmodium falciparum V1/S after 48 hrs incubation by [3H]hypoxanthine incorporation assay
[4] = target: T1, hERG (KCNH2) (Homo sapiens, UniProt Q12809); assay: Inhibition of human ERG at 30 uM
T1 sequence (Q12809 whole entry): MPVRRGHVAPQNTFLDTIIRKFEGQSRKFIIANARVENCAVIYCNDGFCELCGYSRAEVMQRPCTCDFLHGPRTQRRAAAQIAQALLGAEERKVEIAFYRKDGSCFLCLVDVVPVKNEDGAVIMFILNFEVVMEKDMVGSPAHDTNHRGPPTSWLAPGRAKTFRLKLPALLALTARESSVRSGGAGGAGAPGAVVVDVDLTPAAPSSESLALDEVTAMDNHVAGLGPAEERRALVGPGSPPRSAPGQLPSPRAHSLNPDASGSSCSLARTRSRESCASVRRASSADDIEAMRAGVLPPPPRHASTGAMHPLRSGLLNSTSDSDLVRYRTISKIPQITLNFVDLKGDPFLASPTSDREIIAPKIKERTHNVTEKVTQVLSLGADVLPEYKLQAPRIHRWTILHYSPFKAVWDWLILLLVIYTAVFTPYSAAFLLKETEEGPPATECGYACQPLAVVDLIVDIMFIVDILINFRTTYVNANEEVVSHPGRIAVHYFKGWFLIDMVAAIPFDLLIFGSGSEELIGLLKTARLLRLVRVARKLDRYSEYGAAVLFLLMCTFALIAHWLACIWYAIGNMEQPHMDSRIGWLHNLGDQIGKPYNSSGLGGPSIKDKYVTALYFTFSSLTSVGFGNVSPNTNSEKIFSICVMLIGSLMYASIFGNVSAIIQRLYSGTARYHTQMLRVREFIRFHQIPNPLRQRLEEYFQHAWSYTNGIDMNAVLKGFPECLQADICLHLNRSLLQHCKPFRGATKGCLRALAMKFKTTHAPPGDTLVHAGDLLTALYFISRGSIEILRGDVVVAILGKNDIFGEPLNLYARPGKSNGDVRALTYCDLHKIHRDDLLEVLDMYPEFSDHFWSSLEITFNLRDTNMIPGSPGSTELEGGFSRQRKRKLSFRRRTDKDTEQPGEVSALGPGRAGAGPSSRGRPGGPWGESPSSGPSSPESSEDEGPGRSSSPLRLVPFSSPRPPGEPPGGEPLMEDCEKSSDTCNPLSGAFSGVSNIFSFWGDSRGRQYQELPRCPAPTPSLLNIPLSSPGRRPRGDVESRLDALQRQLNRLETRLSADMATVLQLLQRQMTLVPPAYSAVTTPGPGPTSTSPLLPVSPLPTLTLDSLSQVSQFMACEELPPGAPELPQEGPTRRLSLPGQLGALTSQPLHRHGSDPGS

[5] = target: T1, hERG (KCNH2); assay: Inhibition of human ERG at 30 uM by patch clamp method
[6] = target: Voltage-gated inwardly rectifying potassium channel KCNH2 (Homo sapiens, UniProt Q12809); assay: Inhibition of human ERG by patch clamp method
[7] = target: Alpha-1A adrenergic receptor (Homo sapiens, UniProt P35348); assay: Binding affinity to human recombinant alpha 1a receptor
Chain of Alpha-1A adrenergic receptor (P35348 whole entry): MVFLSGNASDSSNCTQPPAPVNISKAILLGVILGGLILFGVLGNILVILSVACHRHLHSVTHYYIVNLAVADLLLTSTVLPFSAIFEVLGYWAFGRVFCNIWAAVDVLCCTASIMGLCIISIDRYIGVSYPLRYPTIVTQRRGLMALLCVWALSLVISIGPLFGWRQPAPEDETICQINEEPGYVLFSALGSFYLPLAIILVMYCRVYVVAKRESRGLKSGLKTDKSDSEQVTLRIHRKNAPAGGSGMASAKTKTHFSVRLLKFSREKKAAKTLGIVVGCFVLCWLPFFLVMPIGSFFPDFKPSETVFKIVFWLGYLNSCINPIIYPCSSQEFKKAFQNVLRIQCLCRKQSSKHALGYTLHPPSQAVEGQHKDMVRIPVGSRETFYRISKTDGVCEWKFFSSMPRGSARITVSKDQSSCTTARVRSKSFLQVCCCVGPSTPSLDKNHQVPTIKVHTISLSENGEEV

[8] = target: Alpha-2A adrenergic receptor (Homo sapiens, UniProt P08913); assay: Binding affinity to human recombinant alpha-2a receptor
[9] = target: Alpha-2C adrenergic receptor (Homo sapiens, UniProt P18825); assay: Binding affinity to human recombinant alpha2c receptor
[10] = Binding affinity to rat benzodiazepine receptor
[11] = target: Cholecystokinin receptor type A (Homo sapiens, UniProt P32238); assay: Binding affinity to human recombinant cholecystokinin A receptor
[12] = target: Corticotropin-releasing factor receptor 2 (Homo sapiens, UniProt Q13324); assay: Binding affinity to human recombinant CRF2alpha receptor
Chain of Corticotropin-releasing factor receptor 2 (Q13324 whole entry): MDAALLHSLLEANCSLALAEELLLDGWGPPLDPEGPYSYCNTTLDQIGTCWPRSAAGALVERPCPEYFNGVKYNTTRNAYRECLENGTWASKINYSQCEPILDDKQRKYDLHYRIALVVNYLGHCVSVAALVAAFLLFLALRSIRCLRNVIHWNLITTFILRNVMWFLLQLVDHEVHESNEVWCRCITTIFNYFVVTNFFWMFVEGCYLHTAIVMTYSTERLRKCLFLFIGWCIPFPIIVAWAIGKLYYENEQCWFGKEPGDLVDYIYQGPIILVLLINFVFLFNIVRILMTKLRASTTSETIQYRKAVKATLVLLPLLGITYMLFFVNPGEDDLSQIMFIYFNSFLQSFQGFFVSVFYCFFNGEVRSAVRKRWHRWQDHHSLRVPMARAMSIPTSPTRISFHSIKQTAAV

[13] = target: D(2) dopamine receptor (Homo sapiens, UniProt P14416); assay: Binding affinity to human recombinant dopamine D2 receptor
Chain of D(2) dopamine receptor (P14416 whole entry): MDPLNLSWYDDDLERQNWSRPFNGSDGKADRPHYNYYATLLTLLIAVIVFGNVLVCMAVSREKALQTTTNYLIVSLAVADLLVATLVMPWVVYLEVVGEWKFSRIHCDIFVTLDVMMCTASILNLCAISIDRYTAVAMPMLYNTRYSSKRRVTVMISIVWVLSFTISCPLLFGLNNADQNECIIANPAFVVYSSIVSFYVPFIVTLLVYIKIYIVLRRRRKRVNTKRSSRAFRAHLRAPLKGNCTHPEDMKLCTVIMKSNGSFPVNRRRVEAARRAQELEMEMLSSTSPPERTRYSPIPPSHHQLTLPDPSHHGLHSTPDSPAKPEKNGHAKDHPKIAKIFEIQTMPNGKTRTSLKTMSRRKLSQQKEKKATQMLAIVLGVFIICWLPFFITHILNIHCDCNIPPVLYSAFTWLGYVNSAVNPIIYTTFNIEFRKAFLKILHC

[14] = target: D(4) dopamine receptor (Homo sapiens, UniProt P21917); assay: Binding affinity to human recombinant dopamine D4.4 receptor
Chain of D(4) dopamine receptor (P21917 whole entry): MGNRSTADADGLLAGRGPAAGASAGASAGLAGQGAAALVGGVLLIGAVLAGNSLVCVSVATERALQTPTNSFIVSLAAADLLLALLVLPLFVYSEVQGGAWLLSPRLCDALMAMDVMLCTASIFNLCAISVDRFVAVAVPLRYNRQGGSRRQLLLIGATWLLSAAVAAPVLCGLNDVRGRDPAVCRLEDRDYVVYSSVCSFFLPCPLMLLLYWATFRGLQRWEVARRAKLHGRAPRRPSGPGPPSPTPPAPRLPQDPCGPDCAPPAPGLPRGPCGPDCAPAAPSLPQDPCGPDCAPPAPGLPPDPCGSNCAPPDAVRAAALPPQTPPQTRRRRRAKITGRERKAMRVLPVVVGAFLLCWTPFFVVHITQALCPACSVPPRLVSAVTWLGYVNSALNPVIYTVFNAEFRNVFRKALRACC

[15] = target: Sodium-dependent dopamine transporter (Homo sapiens, UniProt Q01959); assay: Binding affinity to human recombinant dopamine transporter
Chain of Sodium-dependent dopamine transporter (Q01959 whole entry): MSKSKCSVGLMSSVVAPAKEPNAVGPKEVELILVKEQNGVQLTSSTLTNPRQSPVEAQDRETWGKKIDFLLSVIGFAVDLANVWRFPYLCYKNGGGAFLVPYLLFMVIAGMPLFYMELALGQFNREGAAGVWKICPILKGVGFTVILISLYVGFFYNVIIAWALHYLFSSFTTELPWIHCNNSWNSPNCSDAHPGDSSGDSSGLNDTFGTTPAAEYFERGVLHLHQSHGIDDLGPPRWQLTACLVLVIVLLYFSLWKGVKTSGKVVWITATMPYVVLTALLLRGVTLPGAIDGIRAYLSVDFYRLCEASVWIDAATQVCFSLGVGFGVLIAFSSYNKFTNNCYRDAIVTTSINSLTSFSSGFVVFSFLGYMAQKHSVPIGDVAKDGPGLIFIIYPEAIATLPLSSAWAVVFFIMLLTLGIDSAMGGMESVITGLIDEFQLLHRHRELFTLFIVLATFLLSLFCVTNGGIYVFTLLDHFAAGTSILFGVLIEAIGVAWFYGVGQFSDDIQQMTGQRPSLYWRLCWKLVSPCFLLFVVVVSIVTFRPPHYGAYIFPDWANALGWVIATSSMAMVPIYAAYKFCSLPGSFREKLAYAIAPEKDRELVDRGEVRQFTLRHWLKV

[16] = target: Endothelin-1 receptor (Homo sapiens, UniProt P25101); assay: Binding affinity to human recombinant endothelin A receptor
[17] = target: Endothelin receptor type B (Homo sapiens, UniProt P24530); assay: Binding affinity to human recombinant endothelin B receptor
[18] = target: Estrogen receptor beta (Homo sapiens, UniProt Q92731); assay: Binding affinity to human recombinant ERbeta
[19] = target: Growth hormone secretagogue receptor type 1 (Homo sapiens, UniProt Q92847); assay: Binding affinity to human recombinant Ghrelin receptor
Chain of Growth hormone secretagogue receptor type 1 (Q92847 whole entry): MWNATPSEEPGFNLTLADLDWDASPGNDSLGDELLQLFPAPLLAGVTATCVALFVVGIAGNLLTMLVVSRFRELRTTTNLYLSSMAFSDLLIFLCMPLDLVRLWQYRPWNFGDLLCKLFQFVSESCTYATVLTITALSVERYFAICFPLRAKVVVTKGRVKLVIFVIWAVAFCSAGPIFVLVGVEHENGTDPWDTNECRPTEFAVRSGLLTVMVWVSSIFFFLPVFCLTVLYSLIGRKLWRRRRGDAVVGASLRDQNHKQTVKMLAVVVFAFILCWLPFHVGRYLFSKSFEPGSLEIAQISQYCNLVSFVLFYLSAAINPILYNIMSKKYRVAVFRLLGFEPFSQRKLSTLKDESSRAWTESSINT

[20] = target: Melanocortin receptor 3 (Homo sapiens, UniProt P41968); assay: Binding affinity to human recombinant melanocortin MC3 receptor
Chain of Melanocortin receptor 3 (P41968 whole entry): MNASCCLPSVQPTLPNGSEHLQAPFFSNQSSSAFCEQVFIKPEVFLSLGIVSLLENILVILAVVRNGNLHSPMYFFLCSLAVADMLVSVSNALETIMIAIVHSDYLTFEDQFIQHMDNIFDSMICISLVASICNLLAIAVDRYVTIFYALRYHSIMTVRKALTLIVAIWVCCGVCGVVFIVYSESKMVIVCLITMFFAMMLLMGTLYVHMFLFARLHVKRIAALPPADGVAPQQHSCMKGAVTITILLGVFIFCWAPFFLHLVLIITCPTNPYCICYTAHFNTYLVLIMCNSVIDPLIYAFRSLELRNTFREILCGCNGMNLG

[21] = target: Amine oxidase [flavin-containing] A (Homo sapiens, UniProt P21397); assay: Binding affinity to human recombinant MAOM
[22] = target: Neuropeptide Y receptor type 2 (Homo sapiens, UniProt P49146); assay: Binding affinity to human recombinant neuropeptide Y2 receptor
Chain of Neuropeptide Y receptor type 2 (P49146 whole entry): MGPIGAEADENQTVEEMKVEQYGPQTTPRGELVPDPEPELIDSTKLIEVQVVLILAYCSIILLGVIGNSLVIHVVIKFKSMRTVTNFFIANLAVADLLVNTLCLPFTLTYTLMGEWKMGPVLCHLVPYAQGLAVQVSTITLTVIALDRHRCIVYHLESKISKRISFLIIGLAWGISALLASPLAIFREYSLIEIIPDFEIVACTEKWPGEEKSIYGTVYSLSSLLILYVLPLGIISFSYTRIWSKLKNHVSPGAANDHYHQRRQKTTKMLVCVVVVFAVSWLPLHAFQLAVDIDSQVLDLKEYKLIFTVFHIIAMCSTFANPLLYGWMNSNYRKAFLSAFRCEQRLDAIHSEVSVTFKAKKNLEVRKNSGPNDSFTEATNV

[23] = target: Kappa-type opioid receptor (Homo sapiens, UniProt P41145); assay: Binding affinity to human recombinant opiate kappa receptor
[24] = target: Mu-type opioid receptor (Homo sapiens, UniProt P35372); assay: Binding affinity to human recombinant opiate mu receptor
[25] = target: Vasopressin V2 receptor (Homo sapiens, UniProt P30518); assay: Binding affinity to human recombinant vasopressin V2 receptor
Chain of Vasopressin V2 receptor (P30518 whole entry): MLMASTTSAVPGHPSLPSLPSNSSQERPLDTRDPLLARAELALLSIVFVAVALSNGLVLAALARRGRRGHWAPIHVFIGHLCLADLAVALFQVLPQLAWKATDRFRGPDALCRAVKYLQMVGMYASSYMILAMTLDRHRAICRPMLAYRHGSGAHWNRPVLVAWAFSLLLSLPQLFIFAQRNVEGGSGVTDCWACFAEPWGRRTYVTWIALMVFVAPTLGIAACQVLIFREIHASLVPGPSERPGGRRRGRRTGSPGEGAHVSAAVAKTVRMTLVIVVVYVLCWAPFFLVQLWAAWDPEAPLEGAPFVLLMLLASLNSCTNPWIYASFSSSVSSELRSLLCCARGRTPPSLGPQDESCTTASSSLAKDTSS

[26] = Clearance in CD1 mouse at 5.4 mg/kg, iv; assay type: ADME, organism-based; set-up: dose 5.4 mg/kg, route intravenous; settings: in vivo
[27] = Oral bioavailability in CD1 mouse at 24.6 mg/kg; assay type: ADME, organism-based; settings: in vivo
[28] = AUC (0 to infinity) in Wistar rat at 5 mg/kg, iv; assay type: ADME, organism-based; set-up: time infinity, dose 5 mg/kg, route intravenous; settings: plasma
[29] = Volume of distribution at steady state in Wistar rat at 5 mg/kg, iv; assay type: ADME, organism-based; set-up: dose 5 mg/kg, route intravenous; settings: in vivo, read-out: Vdss
[30] = AUC (0 to infinity) in Wistar rat at 23.7 mg/kg, po; assay type: ADME, organism-based; set-up: time infinity, dose 23.7 mg/kg, route oral; settings: plasma
[31] = Intrinsic clearance in human liver microsome; assay type: ADME; settings: liver microsomes
[32] = system: Plasmodium berghei; assay: Antimalarial activity against Plasmodium berghei GFP ANKA infected in NMRI mice (Mus musculus) assessed as cure rate at 100 mg/kg, perorally administered as single dose 24 hrs post infection for 1 day measured 30 days post infection; assay type: functional; settings: route oral
[33] = system: Plasmodium berghei; assay: Antimalarial activity against Plasmodium berghei GFP ANKA infected in NMRI mice (Mus musculus) assessed as reduction in parasitaemia at 30 mg/kg, perorally administered through 0.5% MCM/0.1%solutol HS15 formulation 24 hrs post infection for 3 days measured 96 hrs post infection; assay type: functional; set-up: scale not given: the % may be the effect or the level left; settings: route oral
[34] = system: Plasmodium berghei; assay: Antimalarial activity against Plasmodium berghei GFP ANKA infected in NMRI mice (Mus musculus) assessed as survival at 10 mg/kg, perorally administered through 0.5% MCM/0.1%solutol HS15 formulation 24 hrs post infection for 3 days measured 96 hrs post infection; assay type: functional; settings: route oral
[35] = system: Plasmodium berghei; assay: Antimalarial activity against Plasmodium berghei GFP ANKA infected in NMRI mice (Mus musculus) assessed as survival at 30 mg/kg, perorally administered through 0.5% MCM/0.1%solutol HS15 formulation 24 hrs post infection for 3 days measured 96 hrs post infection; assay type: functional; settings: route oral
[36] = system: Plasmodium berghei; assay: Antimalarial activity against Plasmodium berghei GFP ANKA infected in NMRI mice (Mus musculus) assessed as cure rate at 30 mg/kg, perorally administered through 0.5% MCM/0.1%solutol HS15 formulation 24 hrs post infection for 3 days measured on day 30 post infection; assay type: functional; settings: route oral
[37] = system: Plasmodium falciparum; assay: Antimalarial activity against Plasmodium falciparum Dd2 after 72 hrs by SYBR green based fluorescence assay; assay type: functional, organism-based; settings: Dd2, 72 h
[38] = system: Plasmodium falciparum; assay type: functional, organism-based; settings: Dd2, 72 h, read-out: IC50
[39] = system: Plasmodium berghei; assay: Antimalarial activity against Plasmodium berghei GFP ANKA infected in NMRI mice (Mus musculus) assessed as reduction in parasitaemia dosed in ETPGS formulation 1 day post infection measured 72 hrs post infection; assay type: functional
[40] = system: Plasmodium falciparum; assay: Inhibition of protein synthesis in NITD609-resistant Plasmodium falciparum Dd2 Clone1 within 1 hrs by [35S]Met/Cys incorporation assay; assay type: functional
[41] = system: Plasmodium falciparum; assay: Inhibition of protein synthesis in NITD609-resistant Plasmodium falciparum Dd2 Clone3 within 1 hrs by [35S]Met/Cys incorporation assay; assay type: functional
[42] = Mutagenic activity in Salmonella Typhimurium by Ames test; assay type: toxicity; settings: salmonella enterica subsp. enterica serovar typhimurium
[43] = in vivo; settings: CD1, mouse, iv, 5.4 mg/kg
Description: Elimination half life in CD1 mouse at 5.4 mg/kg, iv

[44] = in vivo; settings: Wistar, rat, po, 23.7 mg/kg
Description: Elimination half life in Wistar rat at 23.7 mg/kg, po

[45] = system: Plasmodium falciparum; assay: microbe, parasite or virus in culture; settings: TM90C2A
[46] = system: Plasmodium falciparum; assay: microbe, parasite or virus in culture; settings: Dd2, 72 h
[47] = system: Plasmodium falciparum; assay: microbe, parasite or virus in culture; settings: Dd2, 72 h; remark: listed apart in the source
[48] = system: Plasmodium falciparum; assay: microbe, parasite or virus in culture; settings: Dd2, 72 h; remark: listed apart in the source
Description: Antimalarial activity against Plasmodium falciparum Dd2 containing attB site inserted in parasite genome and using EF1-alpha promoter driven expressing ATP4 I398F/P990R mutant after 72 hrs by SYBR green based fluorescence assay

[49] = system: Plasmodium falciparum; assay: microbe, parasite or virus in culture; settings: Dd2, 72 h; remark: listed apart in the source
Description: Antimalarial activity against Plasmodium falciparum Dd2 containing attB site inserted in parasite genome and using CAM promoter driven expressing ATP4 D1247Y mutant after 72 hrs by SYBR green based fluorescence assay

## C[C@H]1Cc2c([nH]c3cc(Cl)c(F)cc23)[C@@]2(N1)C(=O)Nc1ccc(Cl)cc12 [CIPARGAMIN]
[1]
  inhibition: Active
[2]
  IC50: 0.7 nM
[3]
  IC50: 1.4 nM
[4]
  inhibition at 30 µM: 52%
[5]
  inhibition at 30 µM: 44.9%
[6]
  IC50: > 30 µM
[7]
  IC50: > 10 µM
[8]
  IC50: > 10 µM
[9]
  IC50: > 10 µM
[10]
  IC50: > 10 µM
[11]
  IC50: > 30 µM
[12]
  IC50: > 30 µM
[13]
  IC50: > 10 µM
[14]
  IC50: > 10 µM
[15]
  IC50: > 10 µM
[16]
  IC50: > 30 µM
[17]
  IC50: > 30 µM
[18]
  IC50: > 30 µM
[19]
  IC50: > 30 µM
[20]
  IC50: > 30 µM
[21]
  IC50: > 10 µM
[22]
  IC50: > 10 µM
[23]
  IC50: > 10 µM
[24]
  IC50: > 10 µM
[25]
  IC50: > 30 µM
[26]
  clearance: 9.75 mL/min/kg
[27]
  bioavailability: 100%
[28]
  AUC(0-inf): 61.3 µM·h
[29]
  Vd: 3.04 L/kg
[30]
  AUC(0-inf): 524 µM·h
[31]
  CLint scaled: 8.67 mL/min/kg
[32]
  Activity: 100%
[33]
  Activity: 99.8%
[34]
  Survival: 24.4 days
[35]
  Survival: 29.1 days
[36]
  Activity: 90%
[37]
  IC50: 0.44 nM
[38]
  IC50: 3.2 nM
[39]
  ED50: 1.2 mg/kg
  ED99: 5.3 mg/kg
[40]
  inhibition (INH): 50%
[41]
  inhibition (INH): 50%
[42]
  Activity: Non-toxic
[43]
  half-life: 206 min
[44]
  half-life: 1660 min
[45]
  IC50: 0.5 nM
[46]
  IC50: 2.8 nM
[47]
  IC50: 4.1 nM
[48]
  IC50: 1.89 nM
[49]
  IC50: 3.9 nM
